DBAASP
Converted amounts (≈) assume the structure as drawn. “And” between values parts separate entries of the source, which are not always exact repeats. Identical values can stand only once.

Legend:
Assay in all cases: ≥ marks a high value that may be exact or a test limit, other limits are often not marked, values filed in µg/mL are converted to µM
[1] = test system: Lactobacillus jensenii ATCC 25258
Bacillus subtilis = test system: Bacillus subtilis
Lactobacillus crispatus = test system: Lactobacillus crispatus
[2] = test system: Escherichia coli ATCC 25922
[3] = test system: Candida albicans ATCC 14053
[4] = test system: Pseudomonas aeruginosa ATCC 27853
[5] = test system: Staphylococcus aureus ATCC 25923
[6] = test system: Enterococcus faecium ATCC 51559
Enterococcus avium = test system: Enterococcus avium
Staphylococcus aureus = test system: Staphylococcus aureus
Edwardsiella tarda = test system: Edwardsiella tarda
[7] = test system: Gardnerella vaginalis ATCC 49145
Staphylococcus aureus MR = test system: Staphylococcus aureus MR
[8] = test system: Bacillus subtilis ATCC 9372
Streptococcus agalactiae = test system: Streptococcus agalactiae
Aeromonas hydrophila = test system: Aeromonas hydrophila
[9] = test system: Streptococcus pasteurianus
Escherichia coli = test system: Escherichia coli
[10] = test system: Gardnerella vaginalis ATCC 14018
Streptococcus anginosus = test system: Streptococcus anginosus
Gardnerella vaginalis = test system: Gardnerella vaginalis
[11] = test system: Staphylococcus aureus ATCC 31007
[12] = test system: Staphylococcus aureus ATCC 49476
[13] = test system: Lactobacillus crispatus ATCC 33820
[14] = test system: Lactiplantibacillus plantarum ATCC 14917
[15] = test system: Streptococcus intermedius
Candida albicans = test system: Candida albicans
[16] = test system: Enterococcus faecalis ATCC 51299
[17] = test system: Lactobacillus gasseri ATCC 33323
[18] = test system: Bacillus pumilus ATCC 63202
Pseudomonas aeruginosa = test system: Pseudomonas aeruginosa
[19] = test system: Staphylococcus aureus ATCC 43300
[20] = test system: Staphylococcus aureus T17/13
[21] = test system: Enterococcus faecalis ATCC 29212
[22] = test system: Clostridium perfringens ATCC 10543
[23] = test system: Proteus mirabilis ATCC 25933
[24] = test system: Cutibacterium acnes ATCC 11828
[25] = test system: Bacteroides fragilis ATCC 25285
[26] = test system: Staphylococcus aureus T7/5
[27] = test system: Prevotella melaninogenica
[28] = test system: Staphylococcus epidermidis RP62A
[29] = test system: Peptostreptococcus anaerobius
Cutibacterium acnes = test system: Cutibacterium acnes
Bacteroides fragilis = test system: Bacteroides fragilis
[30] = test system: Fusobacterium varium ATCC 27725
[31] = test system: Salmonella enterica subsp. enterica serovar Typhimurium LT2
Fusobacterium nucleatum = test system: Fusobacterium nucleatum
[32] = test system: Candida albicans ATCC 90028
[33] = test system: Peptoniphilus asaccharolyticus ATCC 29743
[34] = test system: Enterobacter cloacae HNTCC 53001
[35] = test system: Clostridium tertium ATCC 19465
[36] = test system: Klebsiella pneumoniae KK3 9904
[37] = test system: Staphylococcus aureus NCTC 8325
Clostridium septicum = test system: Clostridium septicum

Work on CC[C@H](C)[C@H](NC(=O)[C@H](C)NC(=O)[C@H](CCCCN)NC(=O)CNC(=O)[C@H](C)NC(=O)[C@H](CO)NC(=O)[C@H](Cc1ccccc1)NC(=O)[C@H](CC(C)C)NC(=O)CNC(=O)CNC(=O)[C@@H](NC(=O)[C@@H](NC(=O)[C@H](Cc1cnc[nH]1)NC(=O)[C@H](Cc1cnc[nH]1)NC(=O)[C@@H](NC(=O)[C@@H](N)Cc1ccccc1)[C@@H](C)CC)[C@@H](C)CC)[C@@H](C)CC)C(=O)N[C@@H](Cc1cnc[nH]1)C(=O)N[C@@H](CCCN=C(N)N)C(=O)N[C@@H](CC(C)C)C(=O)N[C@H](C(=O)N[C@@H](CCCN=C(N)N)C(=O)N[C@@H](CCCN=C(N)N)C(=O)N[C@@H](CCCN=C(N)N)C(=O)N[C@@H](CCCN=C(N)N)C(=O)N[C@@H](CCCN=C(N)N)C(=O)O)[C@@H](C)CC [FIHHIIGGLFSAGKAIHRLIRRRRR] yielded an MIC [1] of no less than 83.8 µM, an MIC (Bacillus subtilis) of 1.7 µM (≈ 5.07 µg/mL) and an MIC (Lactobacillus crispatus) of 29.6 µM (≈ 88.4 µg/mL). The MIC [2] was 42.9 µM (≈ 128 µg/mL), the MIC [3] was 2.62 µM (≈ 7.81 µg/mL) and the MIC [4] was 21.5 µM (≈ 64 µg/mL). For the same compound, the MIC [5] was 2.7 µM and 5.4 µM, the MIC [6] was 2.7 µM (≈ 8.05 µg/mL) and the MIC (Enterococcus avium) was 0.926 µM (≈ 2.76 µg/mL). For the same compound, the MIC (Staphylococcus aureus) was 5 µM (≈ 14.9 µg/mL), the MIC (Edwardsiella tarda) was 20 µM (≈ 59.6 µg/mL) and the MIC [7] was 1.31 µM (≈ 3.91 µg/mL). It also gave an MIC (Staphylococcus aureus MR) of 5.37 µM (≈ 16 µg/mL), an MIC [8] of 2.7 µM (≈ 8.05 µg/mL) and an MIC (Streptococcus agalactiae) of 3.71 µM (≈ 11 µg/mL). The MIC (Aeromonas hydrophila) was no less than 160 µM, the MIC [9] was 1.85 µM (≈ 5.53 µg/mL) and the MIC (Escherichia coli) was 5 µM and 1.85 µM. For the same compound, the MIC [10] was 1.31 µM and 2.62 µM, the MIC (Streptococcus anginosus) was 3.71 µM (≈ 11 µg/mL) and the MIC (Gardnerella vaginalis) was 1.85 µM (≈ 5.53 µg/mL). It also gave an MIC [11] of 5.4 µM (≈ 16.1 µg/mL), an MIC [12] of 2.68 µM (≈ 8 µg/mL) and an MIC [13] of no less than 41.9 µM. The MIC [14] was no less than 41.9 µM, the MIC [15] was 5.24 µM (≈ 15.6 µg/mL) and the MIC (Candida albicans) was 26.7 µM and 42.9 µM. The MIC [16] was 10.8 µM (≈ 32.2 µg/mL), the MIC [17] was no less than 168 µM and the MIC [18] was 1.3 µM (≈ 3.88 µg/mL). The MIC (Pseudomonas aeruginosa) was 6.67 µM (≈ 19.9 µg/mL) and the MIC [19] was 2.7 µM (≈ 8.05 µg/mL).
In the case of CC[C@H](C)[C@H](NC(=O)[C@@H](N)CCCN=C(N)N)C(=O)NCC(=O)N[C@H](C(=O)N[C@@H](CC(C)C)C(=O)N[C@@H](CC(C)C)C(=O)N[C@@H](C)C(=O)N[C@@H](CCCN=C(N)N)C(=O)N[C@@H](CC(C)C)C(=O)N1CCC[C@H]1C(=O)N[C@@H](CCCCN)C(=O)N[C@@H](CC(C)C)C(=O)N[C@@H](Cc1ccccc1)C(=O)N[C@@H](CO)C(=O)N[C@@H](CC(C)C)C(=O)N[C@@H](Cc1ccccc1)C(=O)N[C@@H](CCCCN)C(=O)N[C@@H](CC(C)C)C(=O)N[C@@H](CCSC)C(=O)NCC(=O)N[C@@H](CCCCN)C(=O)N[C@@H](CCCCN)C(=O)N[C@H](C(=O)O)C(C)C)C(C)C [RIGVLLARLPKLFSLFKLMGKKV], the MIC [20] is reported as 10 µM (≈ 26.3 µg/mL), the MIC [21] is reported as 12.5 µM (≈ 32.9 µg/mL) and the MIC [22] is reported as 12.5 µM (≈ 32.9 µg/mL). For the same compound, the MIC [23] was no less than 100 µM, the MIC [2] was 2.5 µM (≈ 6.57 µg/mL) and the MIC [24] was 12.5 µM (≈ 32.9 µg/mL). For the same compound, the MIC [4] was 6 µM (≈ 15.8 µg/mL), the MIC [25] was no less than 50 µM and the MIC [26] was 20 µM (≈ 52.6 µg/mL). The MIC [27] was 6 µM (≈ 15.8 µg/mL), the MIC [28] was 6 µM (≈ 15.8 µg/mL) and the MIC [29] was 25 µM (≈ 65.7 µg/mL). For the same compound, the MIC (Cutibacterium acnes) was 6 µM (≈ 15.8 µg/mL), the MIC (Bacteroides fragilis) was no less than 50 µM and the MIC [30] was no less than 50 µM. For the same compound, the MIC [31] was 25 µM (≈ 65.7 µg/mL), the MIC (Fusobacterium nucleatum) was no less than 50 µM and the MIC [32] was no less than 80 µM. For the same compound, the MIC [33] was no less than 50 µM, the MIC [34] was 6 µM (≈ 15.8 µg/mL) and the MIC [35] was 12.5 µM (≈ 32.9 µg/mL). The MIC [36] was 12.5 µM (≈ 32.9 µg/mL), the MIC [37] was no less than 40 µM and the MIC (Clostridium septicum) was no less than 50 µM.
